Reference: patent US11958860B2, “Crystal form of compound, and preparation method therefor and use thereof” (JIANGSU KANION PHARMACEUTICAL CO., LTD., priority 2021, dated 2024)

Columns and labels:
Assay type in all cases: physicochemical
[1] = Dynamic vapor sorption (DVS) hygroscopicity test; details: for water absorption percentage / water loss percentage: 25 °C
Description: Dynamic vapor sorption (DVS) test/hygroscopicity test is to quickly determine the increase and loss of sample moisture caused by a flowing carrier gas with a set relative humidity (RH). The sample is placed on a high-sensitivity and high-stability digital micro-balancer in a self-suspension state, and then the sorption/desorption of water vapor is detected by determining the increase/decrease of material mass, so as to determine the hygroscopicity of the sample.
In the present invention, test parameters of the DVS are as follows: device model: SMS DVS Intrinsic; 0-95% RH; temperature: 25° C.
A dynamic vapor sorption (DVS) device is used to investigate the moisture sorption and desorption of samples at a temperature of 25° C. and a relative humidity of 0-95%, so as to determine the hygroscopic sorption properties of different crystal forms.

[2] = Transformation experiment between crystal forms (heating); details: heating temperature 120 °C, heating time 40 min
Description: Four crystal forms, such as Form A, Form B, Form C, and Form D, are experienced for mutual transformation experiment. Experimental conditions and results are as follows: […]

[3] = Comparison of crystal form stability (equilibrated suspension); details: conclusion from the crystal transformation results (Tables 2 and 3)
Procedure: 5 mg of each sample is taken and mixed with 1 ml of a solvent at 25° C. Experimental conditions and results are as follows: […]

[4] = Percentage of solvent or water in crystal form
Description: Thermo gravimetric analysis (TGA for short) is an analysis technique to determine the change of mass of substances with temperature under conditions of programmed temperature control. […] Thus, such thermo gravimetric analysis is suitable for detecting the loss of crystallization solvents or crystallization water molecules in crystalline substances or the process and magnitude of sublimation and decomposition of the sample, and can also effectively distinguish whether the substances contain the crystallization solvents or the crystallization water molecules.
In the present invention, test parameters of the TGA are as follows: device model: Netzsch TG 209F3; temperature range: 30-400° C.; scanning rate: 10 k/min; purge gas: 25 ml/min; and protective gas: 15 mL/min.

water absorption percentage ([1]; RH 65%) | water absorption percentage ([1]; RH 80%) | change in hygroscopicity and weight (DVS) ([1]; relative humidity of 0-95%, FIG. 5) | Crystal form of product [2] | relative stability of crystal forms [3] | Percentage of solvent or water [4] | water loss percentage ([1]; RH 65%) | water loss percentage ([1]; RH 80%) | Structure (SMILES)
percentage (0.1%) | percentage (0.2%) | approximately 0.6% | Form A | most stable crystal form | 0.0% |  |  | COc1cc2c(cc1OC)CN1CCc3cc4c(cc3[C@@H]1C2)OCO4 [Form A, S-(−)-2,3-methylenedioxy-5,8,13,13a-tetrahydro-10,11-dimethoxy-6H-dibenzo[a, g]quinolizine]
 |  |  | Form A |  | 10.8% | percentage (0.2%) | percentage (0.3%) | COc1cc2c(cc1OC)CN1CCc3cc4c(cc3C1C2)OCO4 (single isomer, unassigned) [Form B, S-(−)-2,3-methylenedioxy-5,8,13,13a-tetrahydro-10,11-dimethoxy-6H-dibenzo[a, g]quinolizine]
percentage (0.5%) | percentage (1.2%) |  | Form A |  | 4.4% |  |  | COc1cc2c(cc1OC)CN1CCc3cc4c(cc3C1C2)OCO4 (single isomer, unassigned) [Form C, S-(−)-2,3-methylenedioxy-5,8,13,13a-tetrahydro-10,11-dimethoxy-6H-dibenzo[a, g]quinolizine]
percentage (0.2%) | percentage (0.3%) |  | Form A |  | 0.0% |  |  | COc1cc2c(cc1OC)CN1CCc3cc4c(cc3C1C2)OCO4 (single isomer, unassigned) [Form D, S-(−)-2,3-methylenedioxy-5,8,13,13a-tetrahydro-10,11-dimethoxy-6H-dibenzo[a, g]quinolizine]
